Results reported in ChEMBL document CHEMBL5634155, “Design and synthesis of pyrazole derivatives against neutrophilic inflammation” (Eur J Med Chem, 2023).
Active and inactive are the calls of the source. The rule behind the calls is not given here.

How the values were obtained:
Neutrophil [1] = test: Inhibition of fMLF/CB-induced human Neutrophil activation assessed as reduction in superoxide anion generation at 10 uM preincubated with compound for 2 mins prior to CB induction for 3 mins followed by fMLF addition by spectrophotometric analysis relative to control; assay type: functional; conditions: 5 min
Neutrophil [2] = test: Inhibition of fMLF/CB-induced human Neutrophil activation assessed as reduction in elastase release using MeO-Suc-Ala-Ala-Pro-Val-pnitroanilide as substrate incubated for 5 mins; assay type: functional, cell-based
[3] = target: Phosphodiesterase 4 (Homo sapiens) (UniProt P27815+Q08499+Q07343+Q08493); test: Inhibition of PDE4 (unknown origin) at 50 uM incubated for 1 hr by scintillation proximity assay relative to control; assay type: protein assay
Neutrophil [4] = test: Inhibition of fMLF/CB-induced human Neutrophil activation assessed as reduction in elastase release at 10 uM using MeO-Suc-Ala-Ala-Pro-Val-pnitroanilide as substrate incubated for 5 mins relative to control; assay type: functional
Neutrophil [5] = test: Inhibition of fMLF/CB-induced human Neutrophil activation assessed as reduction in superoxide anion generation preincubated with compound for 2 mins prior to CB induction for 3 mins followed by fMLF addition by spectrophotometric analysis; assay type: functional, cell-based
[6] = Apparent volume of distribution in C57BL/6 mouse at 5 mg/kg, iv measured upto 360 mins by HPLC analysis; assay type: ADME, organism-based; conditions: in vivo, 6 h
[7] = target: 3',5'-cyclic-AMP phosphodiesterase 4B (Homo sapiens) (UniProt Q07343); test: Inhibition of human recombinant PDE4B1 at 10 uM using […] as substrate preincubated with compound for 15 mins followed by substrate addition and measured after 30 mins by spectrofluorimetric analysis relative to control; conditions: time 45.0 min
3',5'-cyclic-AMP phosphodiesterase 4B (Homo sapiens), sequence (Q07343 whole entry): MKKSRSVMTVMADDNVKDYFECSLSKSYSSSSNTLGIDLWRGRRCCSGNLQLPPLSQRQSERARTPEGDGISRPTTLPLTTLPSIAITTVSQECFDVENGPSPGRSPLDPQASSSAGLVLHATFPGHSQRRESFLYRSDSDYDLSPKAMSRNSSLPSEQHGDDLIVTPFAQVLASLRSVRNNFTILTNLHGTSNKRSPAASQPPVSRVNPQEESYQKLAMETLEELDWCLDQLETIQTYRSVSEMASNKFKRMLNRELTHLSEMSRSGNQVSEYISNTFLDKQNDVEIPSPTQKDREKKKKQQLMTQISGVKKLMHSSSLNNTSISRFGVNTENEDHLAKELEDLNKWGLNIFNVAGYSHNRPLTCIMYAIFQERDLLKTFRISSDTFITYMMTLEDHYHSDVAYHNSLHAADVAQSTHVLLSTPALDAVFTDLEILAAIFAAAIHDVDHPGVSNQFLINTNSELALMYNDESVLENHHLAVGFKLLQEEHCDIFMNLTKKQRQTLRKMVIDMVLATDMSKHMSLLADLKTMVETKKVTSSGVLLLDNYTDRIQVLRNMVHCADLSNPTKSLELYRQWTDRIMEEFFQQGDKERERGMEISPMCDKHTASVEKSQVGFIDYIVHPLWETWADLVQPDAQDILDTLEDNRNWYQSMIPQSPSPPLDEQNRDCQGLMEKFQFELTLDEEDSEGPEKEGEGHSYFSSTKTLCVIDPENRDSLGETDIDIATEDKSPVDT

[8] = AUC (0 to infinity) in C57BL/6 mouse at 5 mg/kg, iv measured upto 360 mins by HPLC analysis; assay type: ADME, organism-based; conditions: in vivo
[9] = target: 3',5'-cyclic-AMP phosphodiesterase 4D (Homo sapiens) (UniProt Q08499); test: Inhibition of human recombinant PDE4D2 at 10 uM using […] as substrate preincubated with compound for 15 mins followed by substrate addition and measured after 30 mins by spectrofluorimetric analysis relative to control; conditions: time 45.0 min
3',5'-cyclic-AMP phosphodiesterase 4D (Homo sapiens), sequence (Q08499 whole entry): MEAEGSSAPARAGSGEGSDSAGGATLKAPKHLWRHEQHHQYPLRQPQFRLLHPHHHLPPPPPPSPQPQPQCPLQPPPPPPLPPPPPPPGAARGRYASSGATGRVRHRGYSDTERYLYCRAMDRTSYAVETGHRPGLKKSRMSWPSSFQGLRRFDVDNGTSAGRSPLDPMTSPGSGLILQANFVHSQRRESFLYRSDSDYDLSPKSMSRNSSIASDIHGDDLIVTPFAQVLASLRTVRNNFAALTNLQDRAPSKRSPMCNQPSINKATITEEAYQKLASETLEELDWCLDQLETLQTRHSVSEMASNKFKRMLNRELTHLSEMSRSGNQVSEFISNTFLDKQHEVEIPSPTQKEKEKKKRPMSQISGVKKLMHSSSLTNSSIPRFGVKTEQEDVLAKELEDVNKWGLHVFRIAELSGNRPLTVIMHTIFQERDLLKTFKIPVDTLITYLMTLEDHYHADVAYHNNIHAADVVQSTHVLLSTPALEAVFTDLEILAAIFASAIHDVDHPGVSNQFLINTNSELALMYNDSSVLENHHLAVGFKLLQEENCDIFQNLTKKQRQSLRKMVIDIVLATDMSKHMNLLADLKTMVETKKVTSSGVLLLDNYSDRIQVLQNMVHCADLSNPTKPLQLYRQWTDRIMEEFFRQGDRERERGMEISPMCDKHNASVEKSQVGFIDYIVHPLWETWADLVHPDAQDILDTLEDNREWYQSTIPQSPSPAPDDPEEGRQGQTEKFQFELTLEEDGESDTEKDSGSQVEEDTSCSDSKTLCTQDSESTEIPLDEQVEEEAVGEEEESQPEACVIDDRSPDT

Neutrophil [10] = test: Inhibition of fMLF/CB-induced human Neutrophil activation assessed as reduction in superoxide anion generation at 1 to 1000 nM preincubated with compound for 2 mins prior to CB induction for 3 mins followed by fMLF addition in presence of KT5720 by spectrophotometric analysis; assay type: functional, cell-based; conditions: dose 1-1000 nM, time 5.0 min
[11] = Clearance in C57BL/6 mouse at 5 mg/kg, iv measured upto 360 mins by HPLC analysis; assay type: ADME, organism-based; conditions: in vivo
[12] = Half life in C57BL/6 mouse at 5 mg/kg, iv measured upto 360 mins by HPLC analysis; assay type: ADME, organism-based; conditions: in vivo

IC50 (Neutrophil [2]) [µM] | inhibition [3] [%] | IC50 (Neutrophil [5]) [µM] | Vz [6] [mL] | inhibition [7] [%] | AUC(0-inf) [8] [ng·h/mL] | inhibition [9] [%] | clearance [11] [mL/min] | half-life [12] [h] | Compound | inhibition at 10 µM (Neutrophil [1]) [%] | inhibition at 10 µM (Neutrophil [4]) [%] | inhibition (Neutrophil [10])
> 10 | 60 | > 10 | – | – | – | – | – | – | OCc1ccc(-c2nn(Cc3ccccc3)c3ccccc23)o1 | 12.9 | -2.64 | –
> 10 | – | 0.00906 | 225 | 83 | 962 | 85 | 1.97 | 1.32 | Fc1ccccc1Cn1nc(-c2ccco2)cc1-c1ccccc1 | 66.5 | 37 | Active
